The values that follow come from patent US20260184693A1, “INHIBITORS OF SOLUTE CARRIER FAMILY 6A MEMBER 19 (SLC6A19) AND METHODS OF USE THEREOF” (Maze Therapeutics, Inc., priority 2022, published 2026).

A word on the pIC50: it is the IC50 on a negative log10 scale, so that one unit is a factor of ten.

The target in this assay is T1, human SLC6A19 (Homo sapiens, UniProt Q695T7).
T1 construct: expressed in transfected cells
T1 sequence (Q695T7 1-634): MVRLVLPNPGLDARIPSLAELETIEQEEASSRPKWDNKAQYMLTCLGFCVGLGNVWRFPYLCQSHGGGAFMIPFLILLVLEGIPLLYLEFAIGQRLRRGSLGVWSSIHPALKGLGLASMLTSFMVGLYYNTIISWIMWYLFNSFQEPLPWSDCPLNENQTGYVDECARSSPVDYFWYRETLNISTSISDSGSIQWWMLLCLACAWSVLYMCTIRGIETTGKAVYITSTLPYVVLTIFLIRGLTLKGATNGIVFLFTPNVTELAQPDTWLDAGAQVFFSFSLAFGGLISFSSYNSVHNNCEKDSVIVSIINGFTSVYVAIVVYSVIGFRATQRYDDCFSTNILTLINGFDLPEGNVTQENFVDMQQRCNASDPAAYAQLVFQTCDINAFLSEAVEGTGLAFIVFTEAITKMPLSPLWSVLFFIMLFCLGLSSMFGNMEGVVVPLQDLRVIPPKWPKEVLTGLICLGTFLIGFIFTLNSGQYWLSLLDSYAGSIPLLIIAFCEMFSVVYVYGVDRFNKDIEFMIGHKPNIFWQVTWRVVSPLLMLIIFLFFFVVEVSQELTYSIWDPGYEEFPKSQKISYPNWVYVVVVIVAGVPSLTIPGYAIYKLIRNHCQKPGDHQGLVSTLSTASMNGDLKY
T1 sequence (Q9HBJ8 15-222 partner): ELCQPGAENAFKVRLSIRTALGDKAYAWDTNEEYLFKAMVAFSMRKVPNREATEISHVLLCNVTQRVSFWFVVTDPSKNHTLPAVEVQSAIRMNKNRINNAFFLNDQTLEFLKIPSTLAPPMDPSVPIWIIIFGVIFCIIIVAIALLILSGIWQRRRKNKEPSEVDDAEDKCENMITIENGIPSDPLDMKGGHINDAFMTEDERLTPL
Kind of assay: Example B2: 13C6,15N-isoleucine uptake, RapidFire mass spectrometry, in CHO cells with doxycycline-inducible expression of human SLC6A19 and TMEM27. Conditions: read-out: SLC6A19_RapidFire Uptake Assay IC50. The class given is cell-based. How it is done: Assay ready vials of CHO cells with doxycycline inducible expression of human SLC6A19 and TMEM27 were thawed, plated in T175 flasks containing DMEM/F12 media, 10% FBS, 100 Penicillin-Streptomycin, 1× UltraGlutamate, 1 mM Sodium Pyruvate, Sodium Bicarbonate (7.5 mL of 7.5% solution in 500 mL media final), […] Blasticidin, 150 µg/mL Hygromycin B Gold, and 500 µg/mL G418, and incubated (humidified, 37° C. with […]) for 48 hours. Media was then removed, flasks were washed with 20 mL of DPBS, and 5 mL of TryμLE™ Express was added to each flask to initiate cell dissociation. After 5 minutes, 10 mL of cell culture media was added to each flask and mixed. The cell suspension was collected and centrifuged for 5 minutes at 200×g. The supernatant was removed, and the pellet was resuspended in 10 mL of cell culture media. Resuspended cells were counted using a Vi-Cell. 30 μL/well (20,000 cells/well) of cell suspension was added to Poly-D-Lysine 384-well black/clear plates. Plates were incubated (humidified, 37° C. with 5% CO2) for 24 hours. To induce expression of human SLC6A19 and TMEM27, 10 μL of assay culture media containing 4 μg/mL doxycycline was added to each well. Assay plates were then incubated (humidified, 37° C. with 5% CO2) overnight. After incubation, the media was removed, and wells were washed 3 times with 40 μL of warmed DPBS. […] All compounds were plated in a duplicate 10-point dilution series that consisted of 2-fold dilutions. The plates were incubated (humidified, 37° C. with 5% CO2) with compound for 20 minutes. Afterwards, 20 μL/well of 2 mM 13C6,15N-1-isoleucine was added to each well and plates were incubated again (humidified, 37° C. with 5% CO2) for another 20 minutes. Assay buffer was then removed, and plates were washed. 70 μL/well of stop solution (75% acetonitrile, 25% HPLC grade water, 250 nM 1-leucine-1-13 C (RapidFire standard)) was added to each well. The plates were sealed and then placed in a −20° C. freezer for 20 minutes. The plates were thawed at room temperature for 20 minutes and then centrifuge for 20 minutes at 3000 rpm. Using an ABSciex API4000 mass spectrometer, processed samples were loaded onto the graphitic carbon SPE-column. The time for aspiration, load/wash, elution and re-equilibration time was 600, 1500, 3000 and 500 milliseconds, respectively. Peak areas were calculated using RapidFire Integrator software.

pIC50: −log10 of the molar value. Where only a bound is given, the exact number is not on record here.

`CN(C(=O)NCc1cc2cc(Cl)ccc2[nH]1)[C@@H]1CCCN(C(=O)C2COC2)C1` [Compound 1, (R)-3-((5-chloro-1H-indol-2-yl)methyl)-1-methyl-1-(1-(oxetane-3-carbonyl)piperidin-3-yl)urea]: the pIC50 is 6.60.

`CN(C(=O)NCc1cc2cc(Cl)ccc2[nH]1)[C@@H]1CCCN(C(=O)CN2CCOC2=O)C1` [Compound 2, (R)-3-((5-chloro-1H-indol-2-yl)methyl)-1-methyl-1-(1-(2-(2-oxooxazolidin-3-yl)acetyl)piperidin-3-yl)urea]: the pIC50 was 5.45.

For `CN(C(=O)NCc1cc2cc(Cl)ccc2[nH]1)[C@@H]1CCCN(C(=O)CC#N)C1` [Compound 3, (R)-3-((5-chloro-1H-indol-2-yl)methyl)-1-(1-(2-cyanoacetyl)piperidin-3-yl)-1-methylurea], the pIC50 was 6.44.

With `CN(C(=O)NCc1cc2cc(Cl)ccc2[nH]1)[C@@H]1CCCN(C(=O)CO)C1` [Compound 4, (R)-3-((5-chloro-1H-indol-2-yl)methyl)-1-(1-(2-hydroxyacetyl)piperidin-3-yl)-1-methylurea], the negative logarithm of the IC50 (pIC50) was 6.21.

As to `CN(C(=O)NCc1cc2cc(Cl)ccc2[nH]1)[C@@H]1CCCN(C(=O)c2ccon2)C1` [Compound 5, (R)-3-((5-chloro-1H-indol-2-yl)methyl)-1-(1-(isoxazole-3-carbonyl)piperidin-3-yl)-1-methylurea], the pIC50 is 6.24.

On to `CN(C(=O)NCc1cc2cc(Cl)ccc2[nH]1)[C@@H]1CCCN(C(=O)c2ccno2)C1` [Compound 6, (R)-3-((5-chloro-1H-indol-2-yl)methyl)-1-(1-(isoxazole-5-carbonyl)piperidin-3-yl)-1-methylurea], for which the negative logarithm of the IC50 (pIC50) was 6.70.

With `CN(C(=O)NCc1cc2cc(Cl)ccc2[nH]1)[C@@H]1CCCN(C(=O)c2cocn2)C1` [Compound 7, (R)-3-((5-chloro-1H-indol-2-yl)methyl)-1-methyl-1-(1-(oxazole-4-carbonyl)piperidin-3-yl)urea], the negative-log IC50 (pIC50) is 6.16.

As to `CN(C(=O)NCc1cc2cc(Cl)ccc2[nH]1)[C@@H]1CCCN(C(=O)CC(F)(F)F)C1` [Compound 8, (R)-3-((5-chloro-1H-indol-2-yl)methyl)-1-methyl-1-(1-(3,3,3-trifluoropropanoyl)piperidin-3-yl)urea], the pIC50 is 6.31.

As for `CN(C(=O)NCc1cc2cc(Cl)ccc2[nH]1)[C@@H]1CCCN(C(=O)c2nccs2)C1` [Compound 9, (R)-3-((5-chloro-1H-indol-2-yl)methyl)-1-methyl-1-(1-(thiazole-2-carbonyl)piperidin-3-yl)urea], the negative logarithm of the IC50 (pIC50) is 5.27.

Turning to `CCC(=O)N1CCC[C@@H](N(C)C(=O)NCc2cc3cc(Cl)ccc3[nH]2)C1` [Compound 10, (R)-3-((5-chloro-1H-indol-2-yl)methyl)-1-methyl-1-(1-propionylpiperidin-3-yl)urea], the negative-log IC50 (pIC50) is 6.90.

Regarding `CN(C(=O)NCc1cc2cc(Cl)ccc2[nH]1)[C@@H]1CCCN(C(=O)c2cn[nH]c2)C1` [Compound 11, (R)-1-(1-(1H-pyrazole-4-carbonyl)piperidin-3-yl)-3-((5-chloro-1H-indol-2-yl)methyl)-1-methylurea], the negative-log IC50 (pIC50) was 6.13.

For the molecule `CC(O)C(=O)N1CCC[C@@H](N(C)C(=O)NCc2cc3cc(Cl)ccc3[nH]2)C1` (stereo partly drawn) [Compound 12, 3-((5-chloro-1H-indol-2-yl)methyl)-1-((3R)-1-(2-hydroxypropanoyl)piperidin-3-yl)-1-methylurea], the pIC50 is 6.45.

For `CN(C(=O)NCc1cc2cc(Cl)ccc2[nH]1)[C@@H]1CCCN(C(=O)c2c[nH]cn2)C1` [Compound 13, (R)-1-(1-(1H-imidazole-4-carbonyl)piperidin-3-yl)-3-((5-chloro-1H-indol-2-yl)methyl)-1-methylurea], the pIC50 was 5.79.

As for `CN(C(=O)NCc1cc2cc(Cl)ccc2[nH]1)[C@@H]1CCCN(C(=O)[C@H]2C[C@@H]2F)C1` [Compound 14, 3-((5-chloro-1H-indol-2-yl)methyl)-1-((R)-1-((1R,2S)-2-fluorocyclopropane-1-carbonyl)piperidin-3-yl)-1-methylurea], the pIC50 is 6.33.

As for `COCC(=O)N1CCC[C@@H](N(C)C(=O)NCc2cc3cc(Cl)ccc3[nH]2)C1` [Compound 15, (R)-3-((5-chloro-1H-indol-2-yl)methyl)-1-(1-(2-methoxyacetyl)piperidin-3-yl)-1-methylurea], the negative-log IC50 (pIC50) is 6.27.

For `CN(C(=O)NCc1cc2cc(Cl)ccc2[nH]1)[C@@H]1CCCN(C(=O)C2(F)CC2)C1` [Compound 16, (R)-3-((5-chloro-1H-indol-2-yl)methyl)-1-(1-(1-fluorocyclopropane-1-carbonyl)piperidin-3-yl)-1-methylurea], the negative-log IC50 (pIC50) is under 5.37.

As to `CN(C(=O)NCc1cc2cc(Cl)ccc2[nH]1)[C@@H]1CCCN(C(=O)C2CC2)C1` [Compound 17, (R)-3-((5-chloro-1H-indol-2-yl)methyl)-1-(1-(cyclopropanecarbonyl)piperidin-3-yl)-1-methylurea], the pIC50 is 6.82.

For `CN(C(=O)NCc1cc2cc(Cl)ccc2[nH]1)[C@@H]1CCCN(C(=O)c2ncc[nH]2)C1` [Compound 18, (R)-1-(1-(1H-imidazole-2-carbonyl)piperidin-3-yl)-3-((5-chloro-1H-indol-2-yl)methyl)-1-methylurea], the negative logarithm of the IC50 (pIC50) was 5.65.

As for `CN(C(=O)NCc1cc2cc(Cl)ccc2[nH]1)[C@@H]1CCCN(C(=O)C2CC2(F)F)C1` (stereo partly drawn) [Compound 19, 3-((5-chloro-1H-indol-2-yl)methyl)-1-((3R)-1-(2,2-difluorocyclopropane-1-carbonyl)piperidin-3-yl)-1-methylurea], the pIC50 is 6.32.

Take `CN(C(=O)NCc1cc2cc(Cl)ccc2[nH]1)[C@@H]1CCCN(C(=O)c2cncnc2)C1` [Compound 20, (R)-3-((5-chloro-1H-indol-2-yl)methyl)-1-methyl-1-(1-(pyrimidine-5-carbonyl)piperidin-3-yl)urea]: the negative logarithm of the IC50 (pIC50) was 5.05.

As for `CN(C(=O)NCc1cc2cc(Cl)ccc2[nH]1)[C@@H]1CCCN(C(=O)c2ncccn2)C1` [Compound 22, (R)-3-((5-chloro-1H-indol-2-yl)methyl)-1-methyl-1-(1-(pyrimidine-2-carbonyl)piperidin-3-yl)urea], the negative logarithm of the IC50 (pIC50) was 5.36.

As to `CN(C(=O)NCc1cc2cc(Cl)ccc2[nH]1)[C@@H]1CCCN(C(=O)c2ccnnc2)C1` [Compound 23, (R)-3-((5-chloro-1H-indol-2-yl)methyl)-1-methyl-1-(1-(pyridazine-4-carbonyl)piperidin-3-yl)urea], the negative logarithm of the IC50 (pIC50) was 5.23.

With `CN(C(=O)NCc1cc2cc(Cl)ccc2[nH]1)[C@@H]1CCCN(C(=O)c2ncc(F)cn2)C1` [Compound 24, (R)-3-((5-chloro-1H-indol-2-yl)methyl)-1-(1-(5-fluoropyrimidine-2-carbonyl)piperidin-3-yl)-1-methylurea], the negative logarithm of the IC50 (pIC50) is 5.38.

In the case of `Cc1n[nH]nc1C(=O)N1CCC[C@@H](N(C)C(=O)NCc2cc3cc(Cl)ccc3[nH]2)C1` [Compound 25, (R)-3-((5-chloro-1H-indol-2-yl)methyl)-1-methyl-1-(1-(5-methyl-2H-1,2,3-triazole-4-carbonyl)piperidin-3-yl)urea], the pIC50 was 4.94.
